Values quoted from earlier work, collected in paper PMC7395068, “The evolution of strategies to minimise the risk of human drug-induced liver injury (DILI) in drug discovery and development” (Archives of Toxicology, 2020).
Read-outs that look alike come from different tables or passages of the source.

How the values were obtained:
[1] = test system: HepG2 cells; conditions: In vitro Assay; ref Persson 2013; cited from earlier work
[2] = test system: HepG2 cells; conditions: In vitro Assay; ref O'Brien 2006; cited from earlier work
[3] = test system: HepG2 cells; conditions: cited from earlier work
[4] = cited from earlier work
[5] = test system: PHH; conditions: In vitro Assay; ref Proctor 2017; cited from earlier work
[6] = ref Chen 2016; cited from earlier work
[7] = test system: hLiMTs; conditions: In vitro Assay; ref Proctor 2017; cited from earlier work
[8] = test system: human hepatocytes; conditions: In vitro Assay; ref Xu 2008; cited from earlier work
[9] = test system: PHH spheroids; conditions: cited from earlier work
[10] = test system: HepG2 C3A spheroid, BSEP, Glu/Gal in HepG2 cells, bioactivation; conditions: In vitro Assay; ref Williams 2019; cited from earlier work
[11] = ref Chen 2011; cited from earlier work
[12] = test system: HepG2 cells, primary human hepatocytes; conditions: In vitro Assay; ref Garside 2014; cited from earlier work
[13] = test system: THLE or HepG2 cells, isolated mitochondria, BSEP; conditions: In vitro Assay; ref Aleo 2019; cited from earlier work
[14] = test system: isolated mouse liver mitochondria; conditions: In vitro Assay; ref Porceddu 2012; cited from earlier work
[15] = In vitro Assay, ref Tolosa 2012
[16] = In vitro Assay, ref Vorrink 2018

CC1=CC(=O)c2ccccc2C1=O [menadione]
Cluser analysis [1]: +VE | Structural based (HCI) [1]: +VE | Structural based (HCI) [2]: +VE (lowest HCI endpoint IC50 (or in the absence of dose–response < 100 µM) < 30 × total human plasma exposure levels (Cmax.tot)) | Structural based (HCI) [3, 15]: +VE | In vivo DILI ([4]; ref O'Brien 2006): -VE | In vivo DILI ([4]; ref Persson 2013): +VE | In vivo DILI ([4]; ref Tolosa 2012): +VE

Cc1ccccc1C(OCCN(C)C)c1ccccc1 (stereo not shown) [orphenadrine]
PHH ATP <100uM [5]: -VE | DILI +VE (5-8), DILI -VE (-4) [6]: -VE | DILI severity category [6]: vNo-DILI-Concern | hLiMTs ATP <100uM [7]: -VE | Structural based (HCI) [8]: -VE | hLiMTs ATP <20 x Cmax [9, 16]: -VE | Bayesian Machine Learning [10]: -VE | Structural based (HCI) [3, 15]: +VE | In vivo DILI ([4]; […]): -VE | In vivo DILI ([4]; ref Proctor 2017): -VE | In vivo DILI ([4]; ref Tolosa 2012): +VE | In vivo DILI ([4]; ref Vorrink 2018): -VE | In vivo DILI ([4]; ref Williams 2019): -VE | In vivo DILI ([4]; ref Xu 2008): -VE

O=C1NC(=O)C(c2ccccc2)(c2ccccc2)N1 [phenytoin]
DILI +VE (5-8), DILI -VE (-4) [6]: +VE | DILI severity category [6]: vMost-DILI-Concern | Structural based (HCI) [8]: +VE | DILI Score (FDA) (1-8) [11]: 3 | hLiMTs ATP <20 x Cmax [9, 16]: -VE | Structural based (HCI) [3, 15]: +VE | In vivo DILI ([4]; […]): +VE | In vivo DILI ([4]; ref Tolosa 2012): +VE | In vivo DILI ([4]; ref Vorrink 2018): +VE | In vivo DILI ([4]; ref Xu 2008): +VE

Cc1cn([C@H]2C=C[C@@H](CO)O2)c(=O)[nH]c1=O [stavudine]
Cluser analysis [1]: -VE | Structural based (HCI) [1]: +VE | Cluster 1-6 +VE Assay [12]: -VE | PHH ATP <100uM [5]: -VE | DILI +VE (5-8), DILI -VE (-4) [6]: +VE | DILI severity category [6]: vMost-DILI-Concern | hLiMTs ATP <100uM [7]: -VE | Structural based (HCI) [8]: -VE | DILI Score (FDA) (1-8) [11]: 8 | hLiMTs ATP <20 x Cmax [9, 16]: -VE | Partition Hybrid HRM Score [13]: -VE | Ro2 Hybrid HRM Score [13]: -VE | Bayesian Machine Learning [10]: +VE | Structural based (HCI) [2]: -VE | Structural based (HCI) [3, 15]: -VE | In vivo DILI ([4]; […]): +VE | In vivo DILI ([4]; ref Aleo 2019): +VE | In vivo DILI ([4]; ref Garside 2014): +VE | In vivo DILI ([4]; ref O'Brien 2006): +VE | In vivo DILI ([4]; ref Persson 2013): +VE | In vivo DILI ([4]; ref Proctor 2017): +VE | In vivo DILI ([4]; ref Tolosa 2012): +VE | In vivo DILI ([4]; ref Vorrink 2018): +VE | In vivo DILI ([4]; ref Williams 2019): +VE | In vivo DILI ([4]; ref Xu 2008): +VE

aflatoxin b1
hLiMTs ATP <20 x Cmax [9]: +VE (key: +VE: IC20 < 20 × Cmax.tot cut-off) | Structural based (HCI) [3]: +VE | In vivo DILI ([4]; in vivo): +VE

gentamycin
in vitro data EC2<=1x Cmax [14]: +VE | in vitro data EC20<=2uM [14]: +VE | Structural based (HCI) [2]: +VE | Structural based (HCI) [3, 15]: -VE | In vivo DILI ([4]; […]): -VE | In vivo DILI ([4]; ref O'Brien 2006): -VE | In vivo DILI ([4]; ref Porceddu 2012): +VE | In vivo DILI ([4]; ref Tolosa 2012): -VE
